We go through 7 molecules from article PMC10695737, “Crystal Modifications of a Cyclic Guanosine Phosphorothioate Analogue, a Drug Candidate for Retinal Neurodegenerations” (ChemistryOpen, 2023).

Values joined by “and” are separate entries in the source; they are usually repeats but may differ in a detail not shown here. Equal entries are not always repeated.

Holding throughout (type): physicochemical
Data set [1] can be described thus: Dynamic vapor sorption (DVS), water sorption as Δm. The note with it: for Water sorption Δm: 25 °C; for Observed Δm: DVS step compared to theoretical hydrate mass change; for Stable %RH range: RH range of the corresponding hydrate step on DVS; for change in mass (Δm): at 95 % relative humidity (maximum RH), stated in text; for Δm after desorption: equilibrated value after desorption cycles. As for the experimental part: The samples were analyzed at 25 °C with a Surface Measurements Systems DVS Advantage. A sample was weighted into a weighing pan and its mass was monitored while it was exposed to different relative humidities (%RH=%P/P0). Before the analysis, the weighing pan was subject to an antistatic program.
The analysis program consisted of two cycles. In each cycle, the relative humidity was increased stepwise up to 95 % RH (starting from 0 % RH, 9 steps with 10 % and one step with 5 %) and then decreased stepwise to 0 % RH again. In both sorption/desorption cycles, at each step, the sample was kept at the set relative humidity until dm/dt <0.002 %, over 15 min.

Data set [2] is described as follows: Phase solubility in deionized water (HPLC). The following applies: for pH of mixture: aqueous solubility measurements, supplement; for pH at saturation solubility / solubility: deionized H2O, quadruplicates. As for the experimental part:
The pH‐solubility profile of cGMPSA salts and free acid was determined by phase solubility techniques.[18] Briefly, saturated mixtures of the compound were prepared by adding excess amount to 4 mL vials containing 2 mL deionized water, an acidic buffer (0.1 M HCl(aq), pH 1), or a basic buffer (0.1 M NaOH(aq), pH 13). They were allowed to equilibrate for 24 h using mild agitation before recording the pH. The clear solution was separated from the solids by filtration with a Cytiva Whatman™ Mini‐Uniprep™ polypropylene 0.45 μm filter device and diluted to an appropriate analytical concentration where needed. The sample was then analyzed by HPLC, and the solubility determined by integrating the area of the peak of interest against a standard curve. The solids were also analyzed by XRPD to record the crystal modification obtained.

A short description of data set [3]: Thermal analysis (DSC/TGA), decomposition. The note with it: for Onset of decomposition (DSC exotherm): DSC 25 to 300 °C, 10 °C/min. As for the experimental part:
Differential scanning calorimetry (DSC) analyses were carried out on a Mettler DSC822e, equipped with a Thermo Haake EK45/MT cooler. The samples were weighed into a 40 μL Al‐cup, which were then closed with a pierced lid. The sample was scanned from 25 to 300 °C, with a scan rate of 10 °C/min.
Thermogravimetric analysis (TGA) was performed on a Mettler TGA/SDTA 851e, equipped with a Haake C50P cooler. Alternatively, thermogravimetric and DSC analyses were carried out simultaneously in a Mettler Toledo TGA/DSC 3+. The samples were weighed into a 100 μL Al‐cup and this was flushed with dry nitrogen gas during the analysis. The sample was scanned from 25 to 300 °C, with a scan rate of 10 °C/min.

The mark [4] stands for this setting: 0 % RH, after final desorption cycle 2 (D2).
Where [5] appears, read: 30 % RH, desorption cycle 2 (D2).
Setting [6] is: 60 % RH, desorption cycle 2 (D2).
Setting [7] is: 95 % RH, desorption cycle 2 (D2).
Setting [8] is: hydrate step stable over 40–70 % RH.
[9] abbreviates: hydrate step stable over 60–95 % RH.

Regarding `NC(CO)(CO)CO.O=c1c2nc(Br)n([C@@H]3O[C@@H]4CO[P@@](O)(=S)O[C@H]4[C@H]3O)c2nc2[nH]c(-c3ccccc3)cn12` [cGMPSA‐Tris, Tris(hydroxymethyl)aminomethane RP-8-Bromo-β-phenyl-1,N2-ethenoguanosine-3′,5′-cyclicmonophosphorothiotic acid], the “Water sorption Δm” value in data set [1] (setting [4]) is recorded as 3.3%; in data set [1] (setting [5]) it was 5.5%; in data set [1] (30 % RH, sorption cycle 1 (S1)) it was 4.9%; in data set [1] (setting [6]), 6.8%; in data set [1] (60 % RH, sorption cycle 1 (S1)), 6.0%; in data set [1] (setting [7]) it was 32.4%. The “Water sorption Δm” value in data set [1] (95 % RH, sorption cycle 1 (S1)) amounted to 32.8%. For the same molecule, the “Observed Δm” value in data set [1] is listed as 3.3%. For the same molecule, in data set [1], the “Stable %RH range” value was 0–70 %RH. The “change in mass (Δm)” value in data set [1] is recorded as 32%. The “initial early sorption Δm” value in data set [1] (consistent with 1 equivalent of H2O) is reported as around 3%. Further, in data set [1] (0 % RH), the Δm after desorption is reported as 3.3. Also, the pH of mixture in data set [2] is recorded as 8,45. Further, in data set [2], the “pH at saturation solubility” value is listed as 8.5 (±0.1). The solubility was 13.5 (±3.5) mg/mL in data set [2] and around 15 mg/mL in data set [2] (listed as ‐Tris).
Consider `N.O=c1c2nc(Br)n([C@@H]3O[C@@H]4COP(=O)(S)O[C@H]4[C@H]3O)c2nc2[nH]c(-c3ccccc3)cn12` (stereo partly shown) [cGMPSA‐NH4], for which, in data set [2], the pH of mixture is on record as 3,16, the “pH at saturation solubility” value is listed as 3.2 (±0.1) and the solubility is listed as 7.9 (±8.0) mg/mL.
As for `O=c1c2nc(Br)n([C@@H]3O[C@@H]4CO[P@@](O)(=S)O[C@H]4[C@H]3O)c2nc2[nH]c(-c3ccccc3)cn12.O=c1c2nc(Br)n([C@@H]3O[C@@H]4CO[P@@](O)(=S)O[C@H]4[C@H]3O)c2nc2[nH]c(-c3ccccc3)cn12.c1ccc(CNCCNCc2ccccc2)cc1` [cGMPSA‐BZ, N,N′-Dibenzylethylenediammonium RP-8-Bromo-β-phenyl-1,N2-ethenoguanosine-3′,5′-cyclicmonophosphorothioate (1:2)], the “Water sorption Δm” value in data set [1] (setting [4]) is listed as −0.2%; in data set [1] (setting [5]), 0.7%; in data set [1] (30 % RH, sorption cycle 1 (S1)), 0.6%; in data set [1] (setting [6]), 3.9%; in data set [1] (60 % RH, sorption cycle 1 (S1)), 1.9%; in data set [1] (setting [7]) it was 4.7%. Moreover, the “Water sorption Δm” value in data set [1] (95 % RH, sorption cycle 1 (S1)) stood at 4.8%. Also, the “Observed Δm” value in data set [1] (setting [8]) turned out to be 1.3%; in data set [1] (setting [9]), 3.9%. Moreover, the results for the “Stable %RH range” value in data set [1] (setting [8]) and in data set [1] (setting [9]) were 40–70 %RH and 60–95 %RH, respectively. In addition, the “change in mass (Δm)” value is 5% in data set [1] and “about 5%” in data set [1] (listed as ‐BZ). Besides, the pH of mixture in data set [2] is reported as 6,81. In addition, in data set [2], the “pH at saturation solubility” value is listed as 6.8 (±0.1). The solubility in data set [2] was 0.01 (±0.01) mg/mL.
With `O=c1c2nc(Br)n([C@@H]3O[C@@H]4COP(=O)([S-])O[C@H]4[C@H]3O)c2nc2[nH]c(-c3ccccc3)cn12.O=c1c2nc(Br)n([C@@H]3O[C@@H]4COP(=O)([S-])O[C@H]4[C@H]3O)c2nc2[nH]c(-c3ccccc3)cn12.[Ca+2]` (stereo partly shown) [cGMPSA‐Ca], the “Water sorption Δm” value in data set [1] (setting [4]) was determined as 1.9%; in data set [1] (setting [5]) it was 12.4%; in data set [1] (30 % RH, sorption cycle 1 (S1)) it was 5.3%; in data set [1] (setting [6]), 15.5%; in data set [1] (60 % RH, sorption cycle 1 (S1)), 7.1%; in data set [1] (setting [7]) it was 22.0%. For the same molecule, the “Water sorption Δm” value in data set [1] (95 % RH, sorption cycle 1 (S1)) turned out to be 21.9%. In addition, the “Observed Δm” value in data set [1] is on record as 1.9%. For the same molecule, the “Stable %RH range” value in data set [1] is given as 0 %RH. For the same molecule, the “change in mass (Δm)” value in data set [1] was 22%. Moreover, the pH of mixture in data set [2] is given as 6,88. Further, the “pH at saturation solubility” value in data set [2] was 6.9 (±0.5). Further, in data set [2], the solubility is recorded as 0.28 (±0.2) mg/mL. This molecule also registered an enthalpy of decomposition in data set [3] (DSC) of 162.3 J/g. The “Onset of decomposition (DSC exotherm)” value in data set [3] was determined as 253.2 °C.
Consider `O=c1c2nc(Br)n([C@@H]3O[C@@H]4COP(=O)(S)O[C@H]4[C@H]3O)c2nc2[nH]c(-c3ccccc3)cn12` (stereo partly shown) [cGMPSA‐H], for which the “Water sorption Δm” value in data set [1] (setting [4]) worked out at 0.3%; in data set [1] (setting [5]), 5.7%; in data set [1] (30 % RH, sorption cycle 1 (S1)), 5.3%; in data set [1] (setting [6]) it was 6.7%; in data set [1] (60 % RH, sorption cycle 1 (S1)), 6.2%; in data set [1] (setting [7]), 9.3%. Also, the “Water sorption Δm” value in data set [1] (95 % RH, sorption cycle 1 (S1)) came to 9.1%. Moreover, in data set [2], the pH of mixture is 2,47. Further, the “pH at saturation solubility” value in data set [2] is on record as 2.5 (±0.2). Further, the solubility in data set [2] was 1.7 (±0.1) mg/mL. Further, the “Onset of decomposition (DSC exotherm)” value in data set [3] was 163.6 °C and ~ 163 °C.
On to `O=c1c2nc(Br)n([C@@H]3O[C@@H]4CO[P@@](O)(=S)O[C@H]4[C@H]3O)c2nc2[nH]c(-c3ccccc3)cn12.c1ccc(CCNCc2ccccc2)cc1` [cGMPSA‐Bnet, N-(Phenylmethyl)benzeneethanammonium RP-8-Bromo-β-phenyl-1,N2-ethenoguanosine-3′,5′-cyclicmonophosphorothioate], for which the “Water sorption Δm” value in data set [1] (setting [4]) came to 0.7%; in data set [1] (setting [5]), 4.4%; in data set [1] (30 % RH, sorption cycle 1 (S1)), 3.4%; in data set [1] (setting [6]), 6.1%; in data set [1] (60 % RH, sorption cycle 1 (S1)), 5.2%; in data set [1] (setting [7]), 7.7%. For the same molecule, in data set [1] (95 % RH, sorption cycle 1 (S1)), the “Water sorption Δm” value is recorded as 8.0%. Moreover, the pH of mixture in data set [2] is listed as 7,17. Also, in data set [2], the “pH at saturation solubility” value is 7.2 (±0.04). In addition, the solubility in data set [2] is listed as 0.05 (±0.03) mg/mL.
Regarding `O=c1c2nc(Br)n([C@@H]3O[C@@H]4COP(=O)([S-])O[C@H]4[C@H]3O)c2nc2[nH]c(-c3ccccc3)cn12.[Na+]` (stereo partly shown) [cGMPSA‐Na], the “Water sorption Δm” value in data set [1] (setting [4]) is listed as −0.3%; in data set [1] (setting [5]), 6.3%; in data set [1] (30 % RH, sorption cycle 1 (S1)), 2.2%; in data set [1] (setting [6]) it was 12.5%; in data set [1] (60 % RH, sorption cycle 1 (S1)), 8.1%; in data set [1] (setting [7]), 15.1%. For the same molecule, the “Water sorption Δm” value in data set [1] (95 % RH, sorption cycle 1 (S1)) is 15.1%. Also, the Δm after desorption in data set [1] (0 % RH) is recorded as ~ 0. In addition, in data set [2], the pH of mixture is 5,45. For the same molecule, the “pH at saturation solubility” value in data set [2] is reported as 5.5 (±0.2). The solubility in data set [2] was 38.4 (±11.1) mg/mL; in data set [2] (listed as sodium), 38 mg/mL; in data set [2] (listed as ‐Na) it was “approximately 40 mg/mL”. For the same molecule, in data set [3], the “Onset of decomposition (DSC exotherm)” value is 212 °C.
